This assay deals with B. cenocepacia. The assay is classed as in vivo, C57BL/6 mice. The settings on record: 0.2 nmol administered 24 h after challenge, collected 48 h after treatment. The procedure:
FIGS. 7A-7G: HMGB1 promotes clearance of S. cenocepaca from mice without inducing sepsis. C57BL/6 mice were challenged with 10^7 CFU intratracheally, and either simultaneously (prevention) or 24 h later (treatment) received 0.2 nmol of HMGB1 valiant. (FIG. 7A) Aggregates of B. cenocepacia were visible by fluorescence microscopy in lung sections probed with an α-B. cenocepacia antibody. For prevention, (FIG. 7B) bronchoalveolar lavage (BAL) collected 18 h post-inoculation (hpi) was analyzed for CFU. (FIG. 7C) Neutrophils in BAL were quantified by differential cell counting. (FIG. 7D) Lung tissue collected 72hpi was fixed, embedded, sectioned, and stained with hematoxylin & eosin (10× magnification). For treatment, 72hpi (FIG. 7E) CFUs were quantified in BAL. (FIG. 7F) Neutrophil recruitment was analyzed 24 h after intraperitoneal (i.p.) administration of HMGB1 valiants by fluorescence-activated cell sorting of peritoneal lavage stained with α-CD45, α-CD11b, and αLy-6G. (FIG. 7G) Serum TNF-α. was measured by ELISA in mice injected i.p. with 0.2 nmol HMGB1 valiants, 5 mg/kg LPS, or both. LoD: limit of detection. Bars represent SD. *P<0.05.
rHMGB1 and mHMGB1 disrupt biofilms in two distinct animal models but the inflammatory response is strongly attenuated with Cys to Ser mutations: Applicant tested both rHMGB1 and mHMGB1 for their ability to treat middle ear infection and the corresponding inflammatory response using a well-established chinchilla model of experimental OM due to NTHI49,67,68 wherein adhered mucosal biofilm formation plays a key role in pathogenesis (FIG. 8A). […] On day 6, animals were sacrificed and middle ears were imaged and blindly scored for biofilm that remained (FIG. 8A) and mucosal inflammation (FIG. 8B). […] Next, Applicant determined whether rHMGB1 or mHMGB1 could prevent or aggregate biofilm development. […] Bc formed aggregates that were readily visible in lung sections probed with Bc antibody (FIG. 7A). […] Next, Applicant assessed the ability of rHMGB1 and mHMGB1 to treat established Bc infection. […]

Like-named read-outs stand apart in the source and are kept apart here.

On to “rHMGB1: tagless human recombinant full length HMGB1 (1-215) expressed in E. coli”, for which the “Bc CFU in lungs / BAL” value is on record as “significantly fewer Bc in their lungs”. In addition, the “Bc CFU in lungs / BAL” value (listed as HMGB1) is recorded as “significantly decreased”.

B1: mHMGB1: engineered C45S variant of full length rHMGB1 that mimics the reduced form of HMGB1 (protein, UniProt P09429 1-215, looked up, variant C45S)
chain: MGKGDPKKPRGKMSSYAFFVQTCREEHKKKHPDASVNFSEFSKKSSERWKTMSAKEKGKFEDMAKADKARYEREMKTYIPPKGETKKKFKDPNAPKRPPSAFFLFCSEYRPKIKGEHPGLSIGDVAKKLGEMWNNTAADDKQPYEKKAAKLKEKYEKDIAAYRAKGKPDAAKKGVVKAEKSKKKKEEEEDEEDEEDEEEEEDEEDEDEEEDDDDE
modifications: full-length
notes: engineered C45S variant of full length rHMGB1 that mimics the reduced form of HMGB1
For B1, the “Bc CFU in lungs / BAL” value is “significantly fewer Bc in their lungs”.

The values are drawn from US12365710B2, “HMGB1 protein derivatives for the removal of biofilms” (RESEARCH INSTITUTE AT NATIONWIDE CHILDREN'S HOSPITAL, priority 2018, dated 2025).
